According to a melting point compilation (Tetko et al.):

melting point	Compound
147 to 154 °C	O=C1C(=Cc2ccc(F)cc2)CCCC1=Cc1ccc(F)cc1
106 to 107 °C	CC(C)(C)c1csc(-c2ccc(C=O)cc2)n1
91 °C	Nc1ccc(F)nc1
46.5 °C	CCc1cc2c(cc1C(C)=O)C(C)(C)CCC2(C)C
296 °C	Cc1cccc(/N=N/c2c(N)nn3c(-c4ccccc4)cc(=O)[nH]c23)c1
114 °C	CCC(C)C(CC)C(N)=O (centres undefined)
213 to 217 °C	CC1OC(Oc2c[nH]c3ccc(Br)c(Cl)c23)C(O)C(O)C1O (centres undefined)
68.3 to 71.3 °C	COC(=O)CC(C)CCC1C(C)(O)CCC2C(C)(C)CCCC21C (centres undefined)
67 °C	CCOC1OC(=O)c2c(OC)cccc21 (centres undefined)
122 °C	Nc1ccc(C=CC(=O)O)cc1
17 to 19 °C	COC(=O)CCCCCCC(=O)O
176 °C	CC1(c2ccccc2)OC(C(=O)O)=CC1=O (centres undefined)
150 °C	O=C(NC(CO)C(O)c1ccc([N+](=O)[O-])cc1)C(Cl)Cl (centres undefined)
137 to 138 °C	Cc1cc(Br)c(N)cc1OCc1ccccc1
150 °C	Cc1cccc(C)c1NC(=O)C1CCCCN1C (centres undefined)
58 °C	COc1ccc(Cl)cc1N=C=S
-112 °C	CCCCCC(C)CO (centres undefined)
117 °C	Fc1c(F)c(F)c(P(c2c(F)c(F)c(F)c(F)c2F)c2c(F)c(F)c(F)c(F)c2F)c(F)c1F
65.5 to 67 °C	O=C(Oc1c(F)c(F)c(F)c(F)c1F)c1cccnc1
128 to 130 °C	N#Cc1cnccc1/C=C/c1ccccc1
-2 °C	CCC(N)CO (centres undefined)
182 °C	CC1(C)OC(=O)C(=Cc2cccs2)C(=O)O1

melting point	Compound
137 to 138 °C	NC(=S)Nc1cccc(Cl)c1
179 to 181 °C	CC(=O)c1sc(-c2ccc(C(C)(C)C)cc2)cc1N
277 °C	Cc1ccc(NN=C2C(=O)NN(c3ccccc3)C2=O)cc1
130 °C	Cc1nc2ccccc2n1CCc1nnc(SCc2ccccc2)n1-c1ccccc1
201 to 203 °C	C[C@@]12CCC[C@@]1(O)[C@@H]1CC=C3CC(O)CC[C@]3(C)[C@H]1CC2 (some centres undefined)
176 °C	CCCOC(=O)C1=C(C)NC(=O)NC1c1ccccc1 (centres undefined)
230 °C	Cc1nc(-c2ccccc2)sc1CN
58 to 59 °C	Cc1cc(Br)c(N)c([N+](=O)[O-])c1
7 °C	CCCCCCCCCCCCCCS
243 to 245 °C	NC(Cc1cc(F)cc(F)c1)C(=O)O (racemic)
263 °C	O=C1CC(c2cccc(C3=NN(c4ccccc4)C(=O)C3)c2)=NN1c1ccccc1
211 to 213 °C	CCOC(=O)c1cnc2nc(SC)nn2c1N
154 to 158 °C	O=[N+]([O-])c1ccc(-c2csc(CCl)n2)cc1
136 to 137 °C	O=C(CBr)c1coc2ccccc12
156 °C	CCS(=O)(=O)c1nnc(N(C)C(=O)NC)s1
151 to 152 °C	C=CCNC(=S)Nc1sc2c(c1C(=O)OCC)CCCC2
137 °C	O=c1cc(-c2ccccc2)cc(-c2ccccc2)o1
126 °C	CC(Oc1c(Cl)cccc1Cl)C1=NCCN1 (centres undefined)
99.5 to 102 °C	N#CCCn1ccnc1-c1ccccc1
186 °C	CC(C)(Oc1ccc(CCNC(=O)c2ccc(Cl)cc2)cc1)C(=O)O
212 °C	O=C(C(=O)c1cc(Br)ccc1O)c1cc(Br)ccc1O
229 °C	O=C1c2ncccc2-c2cccnc21

melting point	Compound
109 °C	O=C(O)Cc1c(F)c(F)c(F)c(F)c1F
84 to 86 °C	CCOC(=O)CNc1ccc(I)cc1
137 to 138 °C	O=c1c(Cl)c(Cl)cnn1Cc1c(F)cccc1Cl
121 °C	COc1ccc(C(CCC(=O)O)C(C)(C)C(=O)O)cc1 (centres undefined)
174 °C	O=C(c1ccccc1)c1cc(C(=O)c2ccccc2)c([N+](=O)[O-])cc1[N+](=O)[O-]
94 to 98 °C	Nc1ccccc1-n1cccc1
141 °C	NC(=O)C1=CN(C2OC(COP(=O)(O)OP(=O)(O)OCC3OC(n4cnc5c(N)ncnc54)C(O)C3O)C(O)C2O)C=CC1 (centres undefined)
69 to 74 °C	COc1cc([N+](=O)[O-])ccc1C
168 °C	O=C(O)c1cc(-c2cccs2)on1
218 to 220 °C	OCC1OC(Oc2ccc3cc(Br)ccc3c2)C(O)C(O)C1O (centres undefined)
60 °C	CC(C)C(C(=O)O)c1ccccc1 (centres undefined)
300 °C	CC(C)(C)C(N)C(=O)O (racemic)
109 °C	COc1ccc(/C=C(\C#N)c2nc(-c3ccco3)cs2)cc1
15 °C	N[C@@H]1CCc2ccccc21
86 °C	NS(=O)(=O)c1ccc(CCCCCO)cc1
261 °C	CC12CCc3c(ccc4cc(O)ccc34)C1(C)CCC2=O (centres undefined)
260 °C	Nc1nc(F)nc2c1ncn2C1OC(CO)C(O)C1O (centres undefined)
162 °C	O=C(/C(=N/Nc1ccc(Cl)cc1Cl)S(=O)(=O)c1ccccc1)c1cccc2ccccc12
172 °C	CCOC(=O)c1nn(-c2ccc(C)cc2)c(C)c1C(=O)c1noc(-c2ccc3ccccc3c2)c1S(=O)(=O)c1ccccc1
220 °C	C1SCSCS1
164 to 165 °C	COc1cc(CCl)c(OC)cc1CCl
115 °C	COc1ccc(C(=O)/C(=N\Nc2cc(Cl)ccc2Cl)S(=O)(=O)c2ccccc2)cc1

melting point	Compound
41 to 42 °C	Cn1nc(C(F)(F)F)c(C=O)c1Cl
-136 °C	C=C=C
248 °C	Cc1cc(=O)oc2cc(OC3OC(CO)C(O)C(O)C3O)ccc12 (centres undefined)
172 °C	CCOC(=O)C1=C(c2ccccc2)NC(=O)NC1c1ccccc1 (centres undefined)
259 to 263 °C	O=C(O)Cn1cc(Cl)c(=O)c(Cl)c1
-20 °C	CC(C)(O)CCl
98 °C	CC(C)(C)[Si](Cl)(Cl)Cl
89 to 95 °C	O=C(O)C(=O)c1cccs1
64 °C	Cc1cc(Br)ccc1C#N
248 °C	O=C1c2ccccc2C(=O)c2c(NCCO)ccc(NCCO)c21
152 °C	CCc1cn(C2CC(O)C(CO)O2)c(=O)[nH]c1=O (centres undefined)
121 °C	Nc1ccc(/C=C\c2ccc(N)cc2)cc1
94 °C	Brc1ccc(Br)nc1
172 °C	COC(=O)C1=C(C)NC(=O)NC1c1ccc(Cl)cc1 (centres undefined)
222 °C	COC1=CC(C)C2CC3OC(=O)CC4C(C)=C(OC)C(=O)C(C2(C)C1=O)C34C (centres undefined)
62 °C	CCOC(=O)C(CCC#N)(CCC#N)C(=O)OCC
118 °C	COP(=O)(CN1C(=O)c2ccccc2C1=O)OC
207 °C	Cc1nc([N+](=O)[O-])cn1CCC(N)=NO
177 °C	O=C(O)c1cc([N+](=O)[O-])cc(S(=O)(=O)Nc2ccccc2)c1
-75 °C	FC(F)CBr
23 °C	CCOC(=O)c1ccncc1
169 °C	Nc1nc(-c2ccc(Cl)cc2)cs1

melting point	Compound
152 °C	Cc1ccc(-n2c(C)nc3cc([N+](=O)[O-])ccc32)cc1
211 to 214 °C	c1ccc(-c2cc3ccccn3c2)cc1
214 °C	O=C1CSc2cc(Cl)ccc2N1
133 °C	ON=C(c1ccccc1)c1ccc(Cl)cc1
190 °C	CC1(C)C2CCC1(C)C(/N=C(\C(=O)c1ccccc1)c1ccccc1)C2/N=C(\C(=O)c1ccccc1)c1ccccc1 (centres undefined)
100 °C	NC(CSc1ccccn1)=NO
226 to 227 °C	N#CC1(C(=O)c2ccccc2)C(c2ccc(F)cc2)NC(=O)NC1c1ccc(F)cc1 (centres undefined)
111 to 113 °C	C=CCn1c(SC)nc2nc(SC)n(C)c2c1=O
219 °C	NC(=O)CN(CC(=O)O)CC(=O)O
12 °C	CCCCCCCC=CC(=O)O
309 °C	CCc1c[nH]c(=O)[nH]c1=O
191 °C	O=Nc1c(-c2ccc([N+](=O)[O-])cc2)nc2ncccn12
202 to 204 °C	Sc1nnc(SCCSc2nnc(S)s2)s1
28.5 °C	CCCCOC(=O)COc1cc(Cl)c(Cl)cc1Cl
140 to 143 °C	O=C(O)c1coc2c1C(=O)CCC2
112 to 113 °C	CC(NC(=O)OCc1ccccc1)C(=O)O (racemic)
140 °C	O=C(O)CONC(=O)c1ccccc1
100 °C	CCc1c(C)[nH]c2ccc(N(C)C)cc12
129 °C	CCc1c(CC)c(CC)c(CC)c(CC)c1CC
105 °C	CC(=O)CC(=O)Nc1ccccc1Cl
223 to 225 °C	Fc1ccc(C=Nc2n[nH]c(N=Cc3ccc(F)cc3)c2Cc2ccc(Cl)cc2)cc1
210 °C	Cc1c(C)c(C)c(C(=O)O)c(C)c1C

Compound	melting point
N#CC(CCc1ccc(Cl)cc1)(Cn1cncn1)c1ccccc1 (centres undefined)	126 °C
CC(C)CCCC(C(=O)O)C1=CCC2(C)C(CCC3C4CCC(O)C4(C)CCC32)C1 (centres undefined)	193 °C
CN(CCCC(=O)c1cccnc1)N=O	67.5 °C
NC(=O)OCC(Cl)(Cl)Cl	64 °C
CNC(=O)C(=NOC)c1ccccc1Oc1ccccc1	88 °C
COP(=O)(OC)C(O)C(Cl)(Cl)Cl (centres undefined)	80 °C
C=C1CCC2(O)C3Cc4ccc(O)c5c4C2(CCN3CC2CC2)C1O5 (centres undefined)	189 °C
CC(=O)OC1CCC2(C)C(=CCC3C4CC(C)C(=O)C4(C)CCC32)C1 (centres undefined)	141 °C
CC1OC(OC2CCC3(C=O)C4CCC5(C)C(C6=CC(=O)OC6)CCC5(O)C4CCC3(O)C2)C(O)C(O)C1O (centres undefined)	238 °C
CCCCC(N)P(=O)(O)O (centres undefined)	267 to 269 °C
O=S(=O)(Cl)c1ccc(Br)s1	41 °C
CCCCCCCCCCCCC1=C(OC(C)=O)C(=O)c2ccccc2C1=O	59.6 °C
CCNc1nc(NC(C)C)nc(SC)n1	88 °C
O=[N+]([O-])c1ccc(C=Cc2ccc(C=Cc3ccc([N+](=O)[O-])cc3[N+](=O)[O-])cc2)c([N+](=O)[O-])c1	294 °C
